In publication PMC10119930, “Dual Molecules Targeting 5-HT6 and GABA-A Receptors as a New Approach to Combat Depression Associated with Neuroinflammation” (ACS Chemical Neuroscience, 2023) one finds Ki data, which are given here for one compound.

Assay [1] addresses muscimol site of the GABA-A receptor. Nature of the assay: Radioligand binding assay for GABA-A receptor ([3H]muscimol displacement, rat brain homogenate). The conditions noted are these: competitive replacement of [3H]muscimol; ±S.E.M. As to the method: The study was acquired according to the earlier protocols.[39] The rats’ brains were homogenized and prepared accurately according to the previous protocol.[39] On the day of the study, brain homogenates were thawed at room temperature and “diluted” in 20 volumes of ice-cold 50 mM Tris-HCl buffer (pH 7.4) and centrifuged (20.000g, 30 min, 0–4 °C). The assay was performed directly on 96-well microplates, which contained 50 mM Tris-HCl buffer (pH 7.4) in a total volume of 300 μL. Reaction mix included 240 μL of the brain tissue suspension, 30 μL of [^3H]-muscimol, and 30 μL solution of tested compounds (administrated at various concentrations: 10^–10–10^–5 M). […] The 96-well microplates containing the reaction mix were incubated for 10 min at 0 °C, followed by rapid filtration over glass fiber filters FilterMate B (PerkinElmer, USA) using the Harvester-96 MACH III FM (Tomtec, USA). The filter mats were dried using a microwave and then placed inside a plastic bag (PerkinElmer, USA). After that, they were soaked in 10 mL of Ultima Gold MV liquid scintillation cocktail (PerkinElmer, USA). […] Ki values were estimated according to the Cheng and Prusoff equation. The study was performed in duplicates. The statistical analysis was performed using (GraphPad Prism, version 4.0, San Diego, CA, USA).

The target of assay [2] is 5-HT6 receptor (Homo sapiens, UniProt P50406). Nature of the assay: Radioligand binding assay for 5-HT6 receptor ([3H]-LSD displacement). Further details: expressed in transfected cells; host or cells: HEK-293 (cryopreserved membranes). The conditions noted are these: competitive replacement of [3H]-LSD; ±S.E.M.; read-out: 5-HT6R Ki. As to the method: To determine the affinity for 5-HT6, the cryopreserved membranes from HEK-293 cells stably transfected with the human recombinant 5-HT6 receptor were used.[40] Preparation of the tested compounds included preparation of stock solutions in DMSO (1 mM) and subsequent serial dilutions (10^–10–10^–5 M) of tested compounds in the appropriate buffer (50 mM Tris buffer, pH 7.4, 10 mM MgCl2, 0.5 mM ethylenediaminetetraacetic acid). The serial dilutions were acquired directly on a 96-well microplate. The reaction mix included 50 μL of appropriate concentration of tested molecule, 50 μL of [^3H]LSD 2.5/2.0 nM, and 150 μL of diluted membranes. The microplate containing the reaction mix was protected with a sealing tape and incubated for 60 min at 37 °C. Quenching of the reaction mixtire included: rapid filtration through UniFilter 96 GF/B filter microplate and rapid washes using 200 μL 50 mM assay buffer and vacuum manifold and 96-well pipettor. The collected microplates were dried overnight at 37 °C. The UniFilter bottoms were sealed, and then 30 μL of Betaplate Scint liquid scintillator (PerkinElmer) was added to each well. […] The obtained data were fit to a one-site curve-fitting equation using Prism 5 software (GraphPad Software), and the Ki values were determined using the Cheng–Prusoff equation. Radioligand binding was performed in duplicates.
Chain of 5-HT6 receptor (P50406 whole entry): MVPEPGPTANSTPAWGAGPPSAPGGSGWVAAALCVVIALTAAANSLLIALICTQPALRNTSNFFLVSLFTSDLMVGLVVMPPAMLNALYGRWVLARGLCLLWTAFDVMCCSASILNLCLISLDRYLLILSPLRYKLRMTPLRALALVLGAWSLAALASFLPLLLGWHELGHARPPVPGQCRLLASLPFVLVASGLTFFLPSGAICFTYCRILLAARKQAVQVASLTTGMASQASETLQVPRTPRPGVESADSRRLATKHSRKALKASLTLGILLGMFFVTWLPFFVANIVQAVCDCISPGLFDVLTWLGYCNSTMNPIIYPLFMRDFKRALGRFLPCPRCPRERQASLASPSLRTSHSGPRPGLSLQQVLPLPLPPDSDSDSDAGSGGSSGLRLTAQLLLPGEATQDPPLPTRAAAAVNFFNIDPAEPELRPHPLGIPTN

On to `Cc1c(OCc2ccccc2)cccc1N1CCN(CCOC(=O)CCCN)CC1.Cl.Cl` [Compound 16, 1-(2-((4-Ammoniobutanoyl)oxy)ethyl)-4-(3-(benzyloxy)-2-methylphenyl)piperazin-1-ium Dichloride], for which the inhibition constant (Ki) came out at 147 ± 12.7 nM in assay [1] and 16 ± 0.4 nM in assay [2].

What is called Ki is the equilibrium dissociation constant of an inhibitor or competing ligand from its target.
